From ChEMBL document CHEMBL1149304, “1,3,4-thiadiazole derivatives. Synthesis, structure elucidation, and structure-antituberculosis activity relationship investigation” (2004)

System: Mycobacterium tuberculosis
Test: Antituberculosis activity against Mycobacterium tuberculosis H37Rv ATCC 27294 at 6.25 ug/mL
Assay type: functional

SMILES | inhibition at 6.25 µg/mL [%]
Clc1ccc(Nc2nnc(-c3ccccc3)s2)cc1 | 30
Fc1ccc(Nc2nnc(-c3ccccc3)s2)cc1 | 50
Fc1ccc(-c2nnc(Nc3ccc(Cl)cc3)s2)cc1 | 42
Cc1ccc(Nc2nnc(-c3ccncc3)s2)cc1 | 38
O=[N+]([O-])c1ccc(Nc2nnc(-c3ccncc3)s2)cc1 | 18
Fc1ccc(Nc2nnc(-c3ccc(Cl)cc3)s2)cc1 | 54
Fc1ccc(Nc2nnc(-c3ccc(F)cc3)s2)cc1 | 52
O=[N+]([O-])c1ccc(Nc2nnc(-c3ccc([N+](=O)[O-])cc3)s2)cc1 | 20
Fc1ccc(-c2nnc(Nc3ccc(Br)cc3)s2)cc1 | 40
Clc1ccc(Nc2nnc(-c3ccncc3)s2)cc1 | 59
O=[N+]([O-])c1ccc(-c2nnc(Nc3ccc(F)cc3)s2)cc1 | 30
Cc1ccc(Nc2nnc(-c3ccccc3)s2)cc1 | 21
O=[N+]([O-])c1ccc(Nc2nnc(-c3ccccc3)s2)cc1 | 18
Brc1ccc(-c2nnc(Nc3ccccc3)s2)cc1 | 0
O=[N+]([O-])c1ccc(Nc2nnc(-c3ccc(Br)cc3)s2)cc1 | 43
Clc1ccc(-c2nnc(Nc3ccc(Br)cc3)s2)cc1 | 34

SMILES | inhibition at 6.25 µg/mL [%]
Clc1ccc(Nc2nnc(-c3ccc(Cl)cc3)s2)cc1 | 32
O=[N+]([O-])c1ccc(Nc2nnc(-c3ccc(F)cc3)s2)cc1 | 8
O=[N+]([O-])c1ccc(-c2nnc(Nc3ccc(Br)cc3)s2)cc1 | 26
Clc1ccc(Nc2nnc(-c3ccc(Br)cc3)s2)cc1 | 33
Fc1ccc(Nc2nnc(-c3ccc(Br)cc3)s2)cc1 | 42
Cc1ccc(Nc2nnc(-c3ccc(Br)cc3)s2)cc1 | 31
Brc1ccc(Nc2nnc(-c3ccccc3)s2)cc1 | 36
Brc1ccc(Nc2nnc(-c3ccncc3)s2)cc1 | 53
c1ccc(Nc2nnc(-c3ccncc3)s2)cc1 | 38
Brc1ccc(Nc2nnc(-c3ccc(Br)cc3)s2)cc1 | 33
Cc1ccc(Nc2nnc(-c3ccc([N+](=O)[O-])cc3)s2)cc1 | 33
O=[N+]([O-])c1ccc(Nc2nnc(-c3ccc(Cl)cc3)s2)cc1 | 44
Cc1ccc(Nc2nnc(-c3ccc(Cl)cc3)s2)cc1 | 42
Cc1ccc(Nc2nnc(-c3ccc(F)cc3)s2)cc1 | 39
Fc1ccc(Nc2nnc(-c3ccncc3)s2)cc1 | 49
O=[N+]([O-])c1ccc(-c2nnc(Nc3ccc(Cl)cc3)s2)cc1 | 29
